Data set [1] addresses T1, MMP-7FL (matrilysin full length enzyme) (Homo sapiens, UniProt P09237).
T1 construct: MMP-7FL (matrilysin full length enzyme)
T1 sequence (P09237 95-267): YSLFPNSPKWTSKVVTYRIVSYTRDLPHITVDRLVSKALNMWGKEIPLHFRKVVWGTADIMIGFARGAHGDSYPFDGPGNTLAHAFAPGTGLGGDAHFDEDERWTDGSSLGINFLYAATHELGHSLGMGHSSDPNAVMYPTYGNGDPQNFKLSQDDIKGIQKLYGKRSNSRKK
Kind of data set: MMP inhibition, thiopeptolide substrate, MMP-7FL. The format is biochemical. The settings on record: thiopeptolide substrate Ac-Pro-Leu-Gly-thioester-Leu-Leu-Gly-OEt. The method, then: (§1) Experiments were carried out with the full-length and catalytic domains of the proteinases. […] IC50 values were determined using a thiopeptolide substrate, Ac-Pro-Leu-Gly-thioester-Leu-Leu-Gly-OEt (Ye Q.-Z., Johnson L. L., Hupe D. J., and Baragi V., “Purification and Characterization of the Human Stromelysin Catalytic Domain Expressed in Escherichia coli,” Biochemistry, 1992;31:11231-11235; Ye Q.-Z., Johnson L. L., Yu A. E., and Hupe D., “Reconstructed 19 kDa catalytic domain of gelatinase A is an active proteinase,” i Biochemistry, 1995;34:47024708.) MMP-13CD was expressed from a synthetic gene and purified from Escherichia coli cell culture according to a previously described method (Ye Q.-Z., Johnson L. L., and Baragi V., “Gene synthesis and expression in E. coli for PUMP, a human matrix metalloproteinase,” Biochemical and Biophysical Research Communications, 1992;186:143-149).

The target in data set [2] is MMP-2CD (gelatinase A catalytic domain) (Homo sapiens, UniProt P08253). Put plainly: MMP inhibition, thiopeptolide substrate, MMP-2CD. The settings on record: thiopeptolide substrate Ac-Pro-Leu-Gly-thioester-Leu-Leu-Gly-OEt. The format is biochemical. The method, then:
as §1

Data set [3] has as its target T2, MMP-9FL (gelatinase B full length enzyme) (Homo sapiens, UniProt P14780).
T2 construct: MMP-9-FL (gelatinase B full length enzyme)
Put plainly: MMP inhibition, thiopeptolide substrate, MMP-9FL. Type of data set: biochemical. Particulars: thiopeptolide substrate Ac-Pro-Leu-Gly-thioester-Leu-Leu-Gly-OEt. The method, then: as §1

Data set [4] concerns the target T3, MMP-3CD (stromelysin-1 catalytic domain) (Homo sapiens, UniProt P08254).
T3 construct: MMP-3CD (stromelysin-1 catalytic domain)
Put plainly: MMP inhibition, thiopeptolide substrate, MMP-3CD. Type of data set: biochemical. Particulars: thiopeptolide substrate Ac-Pro-Leu-Gly-thioester-Leu-Leu-Gly-OEt. The protocol: as §1

For data set [5], the target named is T4, MMP-1FL (collagenase-1 full length enzyme) (Homo sapiens, UniProt P03956).
T4 construct: MMP-IFL (collagenase-1 full length enzyme)
T4 sequence (P03956 100-469): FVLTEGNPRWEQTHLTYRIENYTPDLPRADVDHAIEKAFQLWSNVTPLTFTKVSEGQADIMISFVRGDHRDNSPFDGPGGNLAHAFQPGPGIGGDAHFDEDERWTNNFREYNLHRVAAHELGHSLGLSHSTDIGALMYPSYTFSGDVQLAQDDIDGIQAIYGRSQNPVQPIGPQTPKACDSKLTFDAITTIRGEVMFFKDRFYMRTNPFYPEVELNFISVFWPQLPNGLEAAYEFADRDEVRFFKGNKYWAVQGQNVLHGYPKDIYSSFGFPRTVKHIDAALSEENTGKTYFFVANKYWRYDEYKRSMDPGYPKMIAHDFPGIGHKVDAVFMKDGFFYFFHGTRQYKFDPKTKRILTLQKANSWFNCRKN
Kind of data set: MMP inhibition, thiopeptolide substrate, MMP-1FL. Type of data set: biochemical. The settings on record: thiopeptolide substrate Ac-Pro-Leu-Gly-thioester-Leu-Leu-Gly-OEt. The protocol: as §1

Data set [6] deals with MMP-14CD (membrane-type MMP-1) (Homo sapiens, UniProt P50281). Put plainly: MMP inhibition, thiopeptolide substrate, MMP-14CD. Particulars: thiopeptolide substrate Ac-Pro-Leu-Gly-thioester-Leu-Leu-Gly-OEt; catalytic domain. The format is biochemical. The method, then: as §1
The target of data set [7] is T5, MMP-2FL (gelatinase A full length enzyme) (Homo sapiens, UniProt P08253).
T5 construct: Experiments were carried out with the full-length and catalytic domains of the proteinases
T5 sequence (P08253 110-660): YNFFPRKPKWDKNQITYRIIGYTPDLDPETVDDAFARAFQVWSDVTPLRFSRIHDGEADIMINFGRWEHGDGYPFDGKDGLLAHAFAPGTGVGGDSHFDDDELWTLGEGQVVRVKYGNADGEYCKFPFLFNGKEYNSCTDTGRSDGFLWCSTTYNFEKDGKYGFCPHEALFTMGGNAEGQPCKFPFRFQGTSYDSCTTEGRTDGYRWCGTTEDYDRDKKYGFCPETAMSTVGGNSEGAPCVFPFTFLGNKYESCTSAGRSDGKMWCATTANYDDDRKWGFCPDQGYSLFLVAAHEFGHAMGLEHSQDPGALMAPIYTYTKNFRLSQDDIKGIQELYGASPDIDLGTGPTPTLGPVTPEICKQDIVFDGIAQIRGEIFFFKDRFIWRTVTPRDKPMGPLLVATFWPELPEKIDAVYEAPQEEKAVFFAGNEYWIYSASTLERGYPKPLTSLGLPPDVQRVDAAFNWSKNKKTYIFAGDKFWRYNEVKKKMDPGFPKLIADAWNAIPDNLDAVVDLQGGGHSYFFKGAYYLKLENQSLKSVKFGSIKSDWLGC
Kind of data set: MMP inhibition, thiopeptolide substrate, MMP-2FL. The format is biochemical. The settings on record: thiopeptolide substrate Ac-Pro-Leu-Gly-thioester-Leu-Leu-Gly-OEt. The protocol:
as §1

The target of data set [8] is T6, MMP-13CD (collagenase-3 catalytic domain) (Homo sapiens, UniProt P45452).
T6 construct: MMP-13CD (collagenase-3 catalytic domain); made in house; host or cells: Escherichia coli
Put plainly: MMP inhibition, thiopeptolide substrate, MMP-13CD. Type of data set: biochemical. Particulars: thiopeptolide substrate Ac-Pro-Leu-Gly-thioester-Leu-Leu-Gly-OEt; catalytic domain expressed in Escherichia coli. The method, then:
as §1

Results on four molecules are retold here after patent US6492422B2, “Tricyclic sulfonamides and their derivatives as inhibitors of matrix metalloproteinases” (Warner-Lambert Company, priority 1998, dated 2002).

T3 sequence (P08254 100-272 limits assumed): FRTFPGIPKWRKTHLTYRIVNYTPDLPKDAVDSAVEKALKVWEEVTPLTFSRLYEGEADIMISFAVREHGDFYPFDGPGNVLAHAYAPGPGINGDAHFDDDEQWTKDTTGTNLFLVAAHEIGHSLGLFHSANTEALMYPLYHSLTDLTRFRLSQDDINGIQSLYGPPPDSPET
Chain of MMP-2CD (gelatinase A catalytic domain) (P08253 with tags, fused parts or gaps DEL222-396): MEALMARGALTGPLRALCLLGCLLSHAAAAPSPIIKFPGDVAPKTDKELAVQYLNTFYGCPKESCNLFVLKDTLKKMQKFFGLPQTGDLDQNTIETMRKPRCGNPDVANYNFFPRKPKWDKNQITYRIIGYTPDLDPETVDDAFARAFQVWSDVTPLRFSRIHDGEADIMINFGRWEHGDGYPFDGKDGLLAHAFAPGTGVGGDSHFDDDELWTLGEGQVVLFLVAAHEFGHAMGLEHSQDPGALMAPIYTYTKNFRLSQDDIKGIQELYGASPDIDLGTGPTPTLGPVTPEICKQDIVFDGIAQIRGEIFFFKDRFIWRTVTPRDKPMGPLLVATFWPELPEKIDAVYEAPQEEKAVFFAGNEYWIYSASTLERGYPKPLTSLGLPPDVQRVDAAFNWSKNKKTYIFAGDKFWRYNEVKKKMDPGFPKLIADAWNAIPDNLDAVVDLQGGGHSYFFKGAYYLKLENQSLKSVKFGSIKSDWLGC
T2 sequence (P14780 94-707): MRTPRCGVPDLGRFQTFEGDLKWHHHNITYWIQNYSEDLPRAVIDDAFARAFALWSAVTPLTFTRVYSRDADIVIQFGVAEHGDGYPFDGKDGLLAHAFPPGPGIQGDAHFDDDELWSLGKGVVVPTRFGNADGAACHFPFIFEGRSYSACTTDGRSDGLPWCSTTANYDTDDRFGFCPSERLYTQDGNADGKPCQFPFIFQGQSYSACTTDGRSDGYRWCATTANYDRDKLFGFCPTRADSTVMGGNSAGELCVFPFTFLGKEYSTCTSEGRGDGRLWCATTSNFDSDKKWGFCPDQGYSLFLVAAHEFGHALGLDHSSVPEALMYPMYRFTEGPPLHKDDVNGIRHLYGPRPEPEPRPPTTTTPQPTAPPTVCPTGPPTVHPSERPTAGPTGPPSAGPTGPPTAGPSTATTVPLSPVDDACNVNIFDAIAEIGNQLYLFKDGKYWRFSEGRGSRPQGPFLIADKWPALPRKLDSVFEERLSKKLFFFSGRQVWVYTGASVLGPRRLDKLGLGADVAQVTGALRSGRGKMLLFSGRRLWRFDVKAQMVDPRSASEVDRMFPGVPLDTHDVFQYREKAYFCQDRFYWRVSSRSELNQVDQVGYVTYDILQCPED

For orientation: IC50 means the concentration at which inhibition is half-maximal. The low end stands for greater potency, the high end for weaker potency. Turning to `CC(C)[C@@H](NS(=O)(=O)c1ccc2c3c(oc2c1)CCCC3)C(=O)O` [Example 1, (R) 3-Methyl-2-(6,7,8,9-tetrahydro-dibenzofuran-3-sulfonylamino)-butyric Acid], the IC50 in data set [1] turned out to be 82 µM; in data set [2], 0.037 µM; in [3], 30 µM; in data set [4], 0.046 µM; in data set [5], 6.7 µM; in data set [6], 0.38 µM. Also, the results for the IC50 in [7] and in data set [8] were 0.335 µM and 3.45 µM, respectively.

Broadly, the melting point is the temperature of the solid-liquid transition. In turn, `CC(C)[C@H](NS(=O)(=O)c1ccc2c3c(oc2c1)CCCC3)C(=O)O` [Example 2, (S) 3-Methyl-2-(6,7,8,9-tetrahydro-dibenzofuran-3-sulfonylamino)-butyric Acid] showed a melting point of 162 to 165 °C. In addition, in data set [1], the IC50 worked out at 7.5 µM. Moreover, in data set [2], half-maximal inhibition (IC50) was put at 0.034 µM. Also, in data set [3], inhibition was half-maximal at 100 µM (IC50). The IC50 in [4] is 0.0245 µM. The molecule further displayed an IC50 in data set [5] of 6.05 µM. For the same molecule, in [6], the IC50 came out at 0.155 µM. The molecule also registered a half-maximal inhibitory concentration (IC50) in [7] of 0.43 µM. Besides, the IC50 in data set [8] was 2.3 µM.

With `O=C(O)C[C@H](NS(=O)(=O)c1ccc2c3c(oc2c1)CCCC3)C(=O)O` [Example 3, (S) 2-(6,7,8,9-Tetrahydro-dibenzofuran-3-sulfonylamino)-succinic Acid], the melting point fell in the range of 176 to 179 °C. This molecule had an IC50 in [1] of 3.2 µM. Besides, the half-inhibitory concentration (IC50) in [2] was determined as 0.0167 µM. Moreover, half-maximal inhibition in data set [3] (IC50) required 100 µM. This molecule showed a half-inhibitory concentration (IC50) in [4] of 0.0056 µM. For the same molecule, the half-inhibitory concentration (IC50) in data set [5] is 16 µM. In data set [6], this molecule had an IC50 of 0.048 µM. In [7], this molecule gave an IC50 of 0.45 µM. In addition, in data set [8], inhibition was half-maximal at 0.97 µM (IC50).

With `O=C(O)[C@H](CCc1ccccc1)NS(=O)(=O)c1ccc2c3c(oc2c1)CCCC3` [Example 4, (S) 4-Phenyl-2-(6,7,8,9-tetrahydro-dibenzofuran-3-sulfonylamino)-butyric Acid], the melting point lay in the range of 167 to 169 °C. Half-maximal inhibition in [1] (IC50) required 2.3 µM. In [2], it took 0.018 µM to reach half-maximal inhibition (IC50). The molecule further showed an IC50 in [3] of 28 µM. Moreover, in data set [4], inhibition was half-maximal at 0.0215 µM (IC50). The same molecule yielded an IC50 in data set [5] of 25 µM. This molecule returned an IC50 in data set [6] of 0.064 µM. In data set [7], the IC50 was determined as 0.15 µM. The IC50 in [8] turned out to be 1.34 µM.
